Common to all, as to assay type: biochemical
What all share (details): 20 nM

One assay concerns the target T1, PDE4B1 (Homo sapiens, UniProt Q07343).
T1 construct: purchased BPS 60041
Put plainly: PDE4 inhibitory activity assay (FAM-cAMP enzymatic reaction), PDE4B1. In a few lines:
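Each isoform is incubated with test compound for 15 min at room temperature before FAM-cAMP substrate starts a 30-min reaction.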

For the next assay, the target named is T2, PDE4A1A (Homo sapiens, UniProt P27815).
T2 construct: purchased BPS 60040
T2 sequence (P27815 1-647 isoform P27815-4): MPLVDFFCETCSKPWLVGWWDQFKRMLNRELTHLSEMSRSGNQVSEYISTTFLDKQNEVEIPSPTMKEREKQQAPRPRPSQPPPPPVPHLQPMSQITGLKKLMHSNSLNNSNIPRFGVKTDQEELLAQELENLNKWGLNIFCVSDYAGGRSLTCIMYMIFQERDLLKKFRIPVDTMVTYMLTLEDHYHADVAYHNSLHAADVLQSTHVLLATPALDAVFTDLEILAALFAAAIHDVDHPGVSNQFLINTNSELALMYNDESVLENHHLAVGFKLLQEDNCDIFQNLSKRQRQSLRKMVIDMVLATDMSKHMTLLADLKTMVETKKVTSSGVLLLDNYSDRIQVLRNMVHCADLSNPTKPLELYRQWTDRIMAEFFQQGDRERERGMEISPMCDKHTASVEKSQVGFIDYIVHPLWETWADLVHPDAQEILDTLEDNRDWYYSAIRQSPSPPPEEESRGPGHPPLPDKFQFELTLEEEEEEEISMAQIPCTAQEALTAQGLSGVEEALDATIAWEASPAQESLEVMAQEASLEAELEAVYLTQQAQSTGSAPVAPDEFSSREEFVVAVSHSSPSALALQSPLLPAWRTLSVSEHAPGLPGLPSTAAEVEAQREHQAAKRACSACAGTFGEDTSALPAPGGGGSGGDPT
Put plainly: PDE4 inhibitory activity assay (FAM-cAMP enzymatic reaction), PDE4A1A. In a few lines: (§1)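 Inhibition rates from a fluorescence read gave IC50 values. Each enzyme (PDE4A1A, PDE4B1, PDE4D2) sat with compound for 15 min at room temperature; FAM-cAMP then started a 30 min room-temperature reaction, ended with stop solution and left 60 min more.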

Another assay deals with PDE4D2 (Homo sapiens, UniProt Q08499). The assay can be described thus: PDE4 inhibitory activity assay (FAM-cAMP enzymatic reaction), PDE4D2. The method, boiled down: as §1
Chain of PDE4D2 (Q08499 303-809): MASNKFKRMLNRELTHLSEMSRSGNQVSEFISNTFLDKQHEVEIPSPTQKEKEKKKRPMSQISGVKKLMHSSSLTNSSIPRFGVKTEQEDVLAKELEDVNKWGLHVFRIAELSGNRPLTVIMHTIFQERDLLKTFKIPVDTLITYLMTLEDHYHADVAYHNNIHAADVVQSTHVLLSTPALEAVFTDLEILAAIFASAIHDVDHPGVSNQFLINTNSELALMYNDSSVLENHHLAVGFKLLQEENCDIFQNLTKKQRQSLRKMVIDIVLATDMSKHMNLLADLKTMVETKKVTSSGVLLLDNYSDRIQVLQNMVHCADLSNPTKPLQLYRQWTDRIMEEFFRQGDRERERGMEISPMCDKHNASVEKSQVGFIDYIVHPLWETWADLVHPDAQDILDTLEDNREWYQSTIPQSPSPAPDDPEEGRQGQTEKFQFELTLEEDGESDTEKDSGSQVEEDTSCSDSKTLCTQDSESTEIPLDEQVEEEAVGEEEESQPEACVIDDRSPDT

T1 sequence (Q07343 whole entry): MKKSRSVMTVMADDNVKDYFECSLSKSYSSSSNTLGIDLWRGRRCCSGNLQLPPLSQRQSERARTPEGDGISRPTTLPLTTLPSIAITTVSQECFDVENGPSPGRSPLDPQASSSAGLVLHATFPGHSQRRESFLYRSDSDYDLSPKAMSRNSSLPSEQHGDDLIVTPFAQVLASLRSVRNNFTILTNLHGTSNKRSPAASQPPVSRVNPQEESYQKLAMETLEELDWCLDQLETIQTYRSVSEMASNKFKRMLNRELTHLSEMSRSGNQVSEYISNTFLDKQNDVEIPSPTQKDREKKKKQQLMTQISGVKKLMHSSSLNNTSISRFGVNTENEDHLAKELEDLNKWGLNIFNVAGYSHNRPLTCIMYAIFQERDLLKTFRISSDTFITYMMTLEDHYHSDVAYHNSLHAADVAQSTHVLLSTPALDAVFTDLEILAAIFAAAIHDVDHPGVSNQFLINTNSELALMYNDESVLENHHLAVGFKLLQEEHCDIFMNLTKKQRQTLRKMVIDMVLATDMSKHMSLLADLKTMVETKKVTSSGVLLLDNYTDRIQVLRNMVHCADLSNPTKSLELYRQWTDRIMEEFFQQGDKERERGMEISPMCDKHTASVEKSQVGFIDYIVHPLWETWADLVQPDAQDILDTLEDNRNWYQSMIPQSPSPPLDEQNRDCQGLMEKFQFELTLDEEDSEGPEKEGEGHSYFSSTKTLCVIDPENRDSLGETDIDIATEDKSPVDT

Consider `CCOc1nc([C@@H](CS(C)(=O)=O)n2c(=O)[nH]c3cc(-c4cccc(F)c4C)ccc32)ccc1OC` [Ex. 173, (S)-5-(3-fluoro-2-methylphenyl)-1-(1-(6-ethoxy-5-methoxypyridin-2-yl)-2-(methylsulfonyl)ethyl)-1H-benzo[d]imidazol-2(3H)-one], for which the “PDE4 B1 inhibitory effect at 20 nM” value at PDE4B1 was “+”. In addition, the “PDE4 A1 inhibitory effect at 20 nM” value at PDE4A1A is listed as “+”. Moreover, at PDE4D2, the “PDE4 D2 inhibitory effect at 20 nM” value is “+”.
As to `CCOc1nc([C@@H](CS(C)(=O)=O)n2c(=O)n(C)c3cc(-c4cccc(F)c4C)ccc32)ccc1OC` [Ex. 174, (S)-5-(3-fluoro-2-methylphenyl)-1-(1-(6-ethoxy-5-methoxypyridin-2-yl)-2-(methylsulfonyl)ethyl)-3-methyl-1H-benzo[d]imidazol-2(3H)-one], at PDE4B1, the “PDE4 B1 inhibitory effect at 20 nM” value was “+”. Moreover, the “PDE4 A1 inhibitory effect at 20 nM” value on PDE4A1A is “+”. The “PDE4 D2 inhibitory effect at 20 nM” value on PDE4D2 is on record as “+”.
With `CCOc1nc([C@@H](CS(C)(=O)=O)n2c(=O)[nH]c3cc(-c4cc(C)ccc4F)ccc32)ccc1OC` [Ex. 175, (S)-5-(2-fluoro-5-methylphenyl)-1-(1-(6-ethoxy-5-methoxypyridin-2-yl)-2-(methylsulfonyl)ethyl)-1H-benzo[d]imidazol-2(3H)-one], the “PDE4 B1 inhibitory effect at 20 nM” value at PDE4B1 is on record as “+”. Further, the “PDE4 A1 inhibitory effect at 20 nM” value on PDE4A1A is “+”. In addition, on PDE4D2, the “PDE4 D2 inhibitory effect at 20 nM” value was “+”.
Take `CCOc1nc([C@@H](CS(C)(=O)=O)n2c(=O)n(C)c3cc(-c4cc(C)ccc4F)ccc32)ccc1OC` [Ex. 176, (S)-5-(2-fluoro-5-methylphenyl)-1-(1-(6-ethoxy-5-methoxypyridin-2-yl)-2-(methylsulfonyl)ethyl)-3-methyl-1H-benzo[d]imidazol-2(3H)-one]: the “PDE4 B1 inhibitory effect at 20 nM” value at PDE4B1 is recorded as “+”. For the same compound, the “PDE4 A1 inhibitory effect at 20 nM” value at PDE4A1A is recorded as “+”. Besides, at PDE4D2, the “PDE4 D2 inhibitory effect at 20 nM” value is “+”.
Consider `CCOc1nc([C@@H](CS(C)(=O)=O)n2c(=O)[nH]c3cc(-c4cccc(C)c4F)ccc32)ccc1OC` [Ex. 177, (S)-5-(2-fluoro-3-methylphenyl)-1-(1-(6-ethoxy-5-methoxypyridin-2-yl)-2-(methylsulfonyl)ethyl)-1H-benzo[d]imidazol-2(3H)-one], for which, at PDE4B1, the “PDE4 B1 inhibitory effect at 20 nM” value was “+”. For the same compound, the “PDE4 A1 inhibitory effect at 20 nM” value at PDE4A1A is “+”. Further, the “PDE4 D2 inhibitory effect at 20 nM” value on PDE4D2 is listed as “+”.
As to `CCOc1nc([C@@H](CS(C)(=O)=O)n2c(=O)n(C)c3cc(-c4cccc(C)c4F)ccc32)ccc1OC` [Ex. 178, (S)-5-(2-fluoro-3-methylphenyl)-1-(1-(6-ethoxy-5-methoxypyridin-2-yl)-2-(methylsulfonyl)ethyl)-3-methyl-1H-benzo[d]imidazol-2(3H)-one], the “PDE4 B1 inhibitory effect at 20 nM” value on PDE4B1 is recorded as “+”. On PDE4A1A, the “PDE4 A1 inhibitory effect at 20 nM” value is listed as “+”. At PDE4D2, the “PDE4 D2 inhibitory effect at 20 nM” value is listed as “+”.
As to `CCOc1nc([C@@H](CS(C)(=O)=O)n2c(=O)[nH]c3cc(-c4ccc(C)cc4F)ccc32)ccc1OC` [Ex. 179, (S)-5-(2-fluoro-4-methylphenyl)-1-(1-(6-ethoxy-5-methoxypyridin-2-yl)-2-(methylsulfonyl)ethyl)-1H-benzo[d]imidazol-2(3H)-one], at PDE4B1, the “PDE4 B1 inhibitory effect at 20 nM” value is recorded as “+”. Besides, the “PDE4 A1 inhibitory effect at 20 nM” value at PDE4A1A is listed as “+”. In addition, the “PDE4 D2 inhibitory effect at 20 nM” value at PDE4D2 is on record as “+”.
As to `CCOc1nc([C@@H](CS(C)(=O)=O)n2c(=O)n(C)c3cc(-c4ccc(C)cc4F)ccc32)ccc1OC` [Ex. 180, (S)-5-(2-fluoro-4-methylphenyl)-1-(1-(6-ethoxy-5-methoxypyridin-2-yl)-2-(methylsulfonyl)ethyl)-3-methyl-1H-benzo[d]imidazol-2(3H)-one], at PDE4B1, the “PDE4 B1 inhibitory effect at 20 nM” value is recorded as “+”. Besides, the “PDE4 A1 inhibitory effect at 20 nM” value on PDE4A1A is recorded as “+”. In addition, at PDE4D2, the “PDE4 D2 inhibitory effect at 20 nM” value is recorded as “+”.
Regarding `CCOc1nc([C@@H](CS(C)(=O)=O)n2c(=O)[nH]c3cc(-c4cc(OC)ccc4F)ccc32)ccc1OC` [Ex. 181, (S)-5-(2-fluoro-5-methoxyphenyl)-1-(1-(6-ethoxy-5-methoxypyridin-2-yl)-2-(methylsulfonyl)ethyl)-1H-benzo[d]imidazol-2(3H)-one], the “PDE4 B1 inhibitory effect at 20 nM” value on PDE4B1 is “+”. Further, at PDE4A1A, the “PDE4 A1 inhibitory effect at 20 nM” value is listed as “+”. On PDE4D2, the “PDE4 D2 inhibitory effect at 20 nM” value is given as “+”.
On to `CCOc1nc([C@@H](CS(C)(=O)=O)n2c(=O)n(C)c3cc(-c4cc(OC)ccc4F)ccc32)ccc1OC` [Ex. 182, (S)-5-(2-fluoro-5-methoxyphenyl)-1-(1-(6-ethoxy-5-methoxypyridin-2-yl)-2-(methylsulfonyl)ethyl)-3-methyl-1H-benzo[d]imidazol-2(3H)-one], for which the “PDE4 B1 inhibitory effect at 20 nM” value on PDE4B1 is “+”. Also, on PDE4A1A, the “PDE4 A1 inhibitory effect at 20 nM” value is “+”. For the same compound, on PDE4D2, the “PDE4 D2 inhibitory effect at 20 nM” value was “+”.
For `CCOc1nc([C@@H](CS(C)(=O)=O)n2c(=O)[nH]c3cc(-c4cccc(OC)c4F)ccc32)ccc1OC` [Ex. 183, (S)-5-(2-fluoro-3-methoxyphenyl)-1-(1-(6-ethoxy-5-methoxypyridin-2-yl)-2-(methylsulfonyl)ethyl)-1H-benzo[d]imidazol-2(3H)-one], the “PDE4 B1 inhibitory effect at 20 nM” value at PDE4B1 is recorded as “+”. Moreover, the “PDE4 A1 inhibitory effect at 20 nM” value at PDE4A1A was “+”. Also, the “PDE4 D2 inhibitory effect at 20 nM” value at PDE4D2 was “+”.
Consider `CCOc1nc([C@@H](CS(C)(=O)=O)n2c(=O)[nH]c3cc(-c4ccc(OC)cc4F)ccc32)ccc1OC` [Ex. 184, (S)-5-(2-fluoro-4-methoxyphenyl)-1-(1-(6-ethoxy-5-methoxypyridin-2-yl)-2-(methylsulfonyl)ethyl)-1H-benzo[d]imidazol-2(3H)-one], for which, at PDE4B1, the “PDE4 B1 inhibitory effect at 20 nM” value was “+”. In addition, on PDE4A1A, the “PDE4 A1 inhibitory effect at 20 nM” value is on record as “+”. At PDE4D2, the “PDE4 D2 inhibitory effect at 20 nM” value is recorded as “+”.
For the compound `CCOc1nc([C@@H](CS(C)(=O)=O)n2c(=O)n(C)c3cc(-c4ccc(OC)cc4F)ccc32)ccc1OC` [Ex. 185, (S)-5-(2-fluoro-4-methoxyphenyl)-1-(1-(6-ethoxy-5-methoxypyridin-2-yl)-2-(methylsulfonyl)ethyl)-3-methyl-1H-benzo[d]imidazol-2(3H)-one], the “PDE4 B1 inhibitory effect at 20 nM” value on PDE4B1 is on record as “+”. Further, on PDE4A1A, the “PDE4 A1 inhibitory effect at 20 nM” value is recorded as “+”. At PDE4D2, the “PDE4 D2 inhibitory effect at 20 nM” value was “+”.
`CCOc1nc([C@@H](CS(C)(=O)=O)n2c(=O)[nH]c3cc(-c4cc(F)ccc4OC)ccc32)ccc1OC` [Ex. 186, (S)-5-(5-fluoro-2-methoxyphenyl)-1-(1-(6-ethoxy-5-methoxypyridin-2-yl)-2-(methylsulfonyl)ethyl)-1H-benzo[d]imidazol-2(3H)-one]: at PDE4B1, the “PDE4 B1 inhibitory effect at 20 nM” value is given as “+”. Besides, on PDE4A1A, the “PDE4 A1 inhibitory effect at 20 nM” value is given as “+”. At PDE4D2, the “PDE4 D2 inhibitory effect at 20 nM” value was “+”.
For `CCOc1nc([C@@H](CS(C)(=O)=O)n2c(=O)n(C)c3cc(-c4cc(F)ccc4OC)ccc32)ccc1OC` [Ex. 187, (S)-5-(5-fluoro-2-methoxyphenyl)-1-(1-(6-ethoxy-5-methoxypyridin-2-yl)-2-(methylsulfonyl)ethyl)-3-methyl-1H-benzo[d]imidazol-2(3H)-one], the “PDE4 B1 inhibitory effect at 20 nM” value on PDE4B1 is recorded as “+”. The “PDE4 A1 inhibitory effect at 20 nM” value at PDE4A1A is on record as “+”. Further, the “PDE4 D2 inhibitory effect at 20 nM” value at PDE4D2 was “+”.
On to `CCOc1nc([C@@H](CS(C)(=O)=O)n2c(=O)[nH]c3cc(-c4ccc(F)cc4OC)ccc32)ccc1OC` [Ex. 188, (S)-5-(4-fluoro-2-methoxyphenyl)-1-(1-(6-ethoxy-5-methoxypyridin-2-yl)-2-(methylsulfonyl)ethyl)-1H-benzo[d]imidazol-2(3H)-one], for which the “PDE4 B1 inhibitory effect at 20 nM” value at PDE4B1 is recorded as “+”. At PDE4A1A, the “PDE4 A1 inhibitory effect at 20 nM” value was “+”. The “PDE4 D2 inhibitory effect at 20 nM” value at PDE4D2 is “+”.
For `CCOc1nc([C@@H](CS(C)(=O)=O)n2c(=O)n(C)c3cc(-c4ccc(F)cc4OC)ccc32)ccc1OC` [Ex. 189, (S)-5-(4-fluoro-2-methoxyphenyl)-1-(1-(6-ethoxy-5-methoxypyridin-2-yl)-2-(methylsulfonyl)ethyl)-3-methyl-1H-benzo[d]imidazol-2(3H)-one], at PDE4B1, the “PDE4 B1 inhibitory effect at 20 nM” value is listed as “+”. For the same compound, the “PDE4 A1 inhibitory effect at 20 nM” value at PDE4A1A is on record as “+”. Moreover, the “PDE4 D2 inhibitory effect at 20 nM” value on PDE4D2 is reported as “+”.
As to `CCOc1nc([C@@H](CS(C)(=O)=O)n2c(=O)[nH]c3cc(-c4c(F)cccc4OC)ccc32)ccc1OC` [Ex. 190, (S)-5-(6-fluoro-2-methoxyphenyl)-1-(1-(6-ethoxy-5-methoxypyridin-2-yl)-2-(methylsulfonyl)ethyl)-1H-benzo[d]imidazol-2(3H)-one], the “PDE4 B1 inhibitory effect at 20 nM” value at PDE4B1 is given as “+”. The “PDE4 A1 inhibitory effect at 20 nM” value at PDE4A1A is listed as “+”. The “PDE4 D2 inhibitory effect at 20 nM” value on PDE4D2 is “+”.
For the compound `CCOc1nc([C@@H](CS(C)(=O)=O)n2c(=O)n(C)c3cc(-c4c(F)cccc4OC)ccc32)ccc1OC` [Ex. 191, (S)-5-(6-fluoro-2-methoxyphenyl)-1-(1-(6-ethoxy-5-methoxypyridin-2-yl)-2-(methylsulfonyl)ethyl)-3-methyl-1H-benzo[d]imidazol-2(3H)-one], the “PDE4 B1 inhibitory effect at 20 nM” value on PDE4B1 is reported as “+”. At PDE4A1A, the “PDE4 A1 inhibitory effect at 20 nM” value was “+”. Further, the “PDE4 D2 inhibitory effect at 20 nM” value on PDE4D2 is listed as “+”.
Turning to `CCOc1ccccc1-c1ccc2c(c1)[nH]c(=O)n2[C@H](CS(C)(=O)=O)c1ccc(OC)c(OCC)n1` [Ex. 192, (S)-1-(1-(6-ethoxy-5-methoxypyridin-2-yl)-2-(methylsulfonyl)ethyl)-5-(2-ethoxyphenyl)-1H-benzo[d]imidazol-2(3H)-one], on PDE4B1, the “PDE4 B1 inhibitory effect at 20 nM” value is “+”. In addition, the “PDE4 A1 inhibitory effect at 20 nM” value on PDE4A1A is “+”. For the same compound, the “PDE4 D2 inhibitory effect at 20 nM” value on PDE4D2 was “+”.
As for `CCOc1ccccc1-c1ccc2c(c1)[nH]c(=O)n2[C@@H](CS(C)(=O)=O)c1ccc(OC)c(OCC)n1` [Ex. 193, (R)-1-(1-(6-ethoxy-5-methoxypyridin-2-yl)-2-(methylsulfonyl)ethyl)-5-(2-ethoxyphenyl)-1H-benzo[d]imidazol-2(3H)-one], on PDE4B1, the “PDE4 B1 inhibitory effect at 20 nM” value is on record as “−”. On PDE4A1A, the “PDE4 A1 inhibitory effect at 20 nM” value is reported as “−”. Also, the “PDE4 D2 inhibitory effect at 20 nM” value on PDE4D2 is listed as “−”.

The record behind these values is patent publication US20230141101A1, “PDE4 INHIBITOR COMPOUND AND MEDICAL USE THEREOF” (Suzhou Longbotai Pharmaceuticals Co., Ltd., priority 2020, published 2023).
